SMILES strings stand for the structures. Read-outs that look alike come from different tables or passages of the source.

Experimental findings from patent US20200407370A1, “PEPTIDYLARGININE DEIMINASE INHIBITOR AND USE THEREOF” (Nanjing Transthera Biosciences Co., Ltd., priority 2018, published 2020) are described below.

Data set [1] concerns the target T1, Peptidylarginine deiminase 4 (PAD4) (Homo sapiens, UniProt Q9UM07).
T1 construct: purchased Cayman 10500
As to the kind of experiment: Assay of enzyme-inhibiting activity (PAD4, FAM-AcH4(1-5) peptide, Caliper detection). The format is biochemical. Conditions: 10 nM PAD4, 5 μM peptide, 0.1 mM Ca2+, pH 8.0. As for the experimental part: Experimental Example 1: Assay of Enzyme-Inhibiting Activity of Compound
Sample: The compound disclosed herein prepared according to exemplary methods.
Peptidylarginine deiminase 4 (PAD4): Cayman, Cat. No. 10500, Lot. No. 0519694;
Carboxyfluorescein-labeled peptide (Peptide FAM-AcH4 (1-5)): GL Biochem, Cat. No. 0200046, Lot. No. P161110-TL545976;
An appropriate amount of the compound to be assayed was dissolved in DMSO to 10 mM. An appropriate amount of 10 mM mother liquor of the compound to be assayed was diluted to 1.5 mM with DMSO, and the solution was then serially diluted 3-fold with DMSO to give 50× concentrations of gradient compound solutions. Finally, 10-fold dilution was carried out with reaction buffer (an aqueous solution of 100 mM HEPES (2-[4-(2-hydroxyethyl)piperazin-1-yl]ethanesulfonic acid) containing 0.01% v/v Triton, pH 8.0) to give 5× concentrations of gradient compound solutions (150 μM, 50 μM, 16.667 μM, 5.556 μM, 1.852 μM, 0.617 μM, 0.206 μM, 0.069 μM, 0.023 μM, and 0.008 μM).
1) Reaction buffer: aqueous solution of 100 mM HEPES (2-[4-(2-hydroxyethyl)piperazin-1-yl]ethanesulfonic acid) containing 0.01% v/v Triton, pH 8.0;
2) Stop solution: aqueous solution of 100 mM HEPES (2-[4-(2-hydroxyethyl)piperazin-1-yl]ethanesulfonic acid) containing 0.015% w/v Brij-35, 0.2% v/v Coating Reagent (coating solution) #3 (PE, part no. 760050) and 50 mM EDTA, pH 8.0;
3) 2.5× enzyme solution: An appropriate amount of PAD4 was diluted to 2.5× (final concentration: 10 nM) with reaction buffer;
4) 2.5× polypeptide solution: An appropriate amount of carboxyfluorescein -labeled peptide (FAM-AcH4(1-5) peptide) and CaCl2) solution was diluted to 2.5× (the final concentration of polypeptide: 5 μM, the final concentration of Ca^2+: 0.1 mM) with reaction buffer.
5 μL of 5× compound solutions or solvents with different concentrations were added to a 384-well plate, 10 μL of 2.5× enzyme solution was then added, and the plate was incubated at room temperature for 10 min. 10 μL of 2.5× polypeptide solution was then added to each well, and the plate was incubated at 28° C. for a certain period of time. 25 μL of stop solution was added to stop reaction. Caliper was used for detection. The inhibition rate was calculated according to the following formula:
Inhibition percentage=(max−transformation)/(max−min)*100.
“max” denotes DMSO control; and “min” denotes low control.

Data set [2] in a line: Pharmacokinetics (PK) of the compound in rats. To be noted: rat, plasma, SD rats; for bioavailability / AUC(0-t) / clearance / Vd / half-life: n = 3; for bioavailability: read-out: F (absolute bioavailability); for clearance: read-out: Cl_obs iv (clearance) (converted); for Vd: read-out: Vz_obs iv (apparent volume of distribution); for Tmax: n = 3, median, read-out: Tmax po (time to maximum plasma concentration). The format is in vivo. As for the experimental part: Experimental Example 3: Pharmacokinetics (PK) of the Compound in Rats
The test compound was dissolved in a mixture of 5% v/v DMSO+20% v/v (30% v/v solutol (polyethylene glycol-15 hydroxystearate purchased from BASF, batch no. 84773247G0))+75% v/v brine to prepare a solution, which was then administered to SD rats by oral gavage at a dose of 5.0 mg/kg. Blood samples were collected at 15 min, 30 min, 1 h, 2 h, 4 h, 6 h, 8 h and 24 h.
The test compound was dissolved in a mixture of 5% v/v DMSO+20% v/v (30% v/v solutol)+75% v/v brine to prepare a solution, which was administered to SD rats by intravenous bolus at a dose of 1 mg/kg. Blood samples were collected at 5 min, 15 min, 30 min, 1 h, 2 h, 4 h, 6 h, 8 h and 24 h.
The animals were fixed, with tails warmed in a water bath 10 min before each sampling time point. About 100 μL of blood was collected via the tail vein, and the blood samples were collected in anticoagulation tubes containing EDTA-K2. The blood samples were centrifuged at 8,000 rpm for 6 min at 4° C. to give plasma samples within 30 min after collection. The plasma samples were stored in a refrigerator at −80° C. before test.
The sample was taken out from the −80° C. refrigerator, and vortexed for 5 min after naturally thawed at room temperature. 20 μL of plasma sample was pipetted into a 1.5 mL centrifuge tube, and 200 μL of 100 ng/mL internal standard working solution (a solution of tolbutamide in methanol) was added. The resulting mixture was mixed, vortexed for 5 min, and then centrifuged at 12,000 rpm for 5 min. 50 μL of the supernatant was pipetted into a 96-well plate with 150 μL of water per well, and the plate was vortexed for 5 min before LC-MS/MS analysis.
The concentration was calculated by Analyst 1.6.3 from AB Sciex. Parameters such as mean, standard deviation and coefficient of variation (excluding those output directly by Analyst 1.6.3) were calculated by Microsoft Excel. PK parameters were calculated by Pharsight Phoenix 6.1 software NCA (Tmax was in median).

The mark [3] stands for this setting: IV 1 mg/kg, read-out: AUClast iv (area under concentration-time curve 0-24 h).
[4] abbreviates: IV 1 mg/kg, read-out: tz1/2 iv (terminal half-life) (converted).
The mark [5] stands for this setting: PO 5 mg/kg, read-out: AUClast po (area under concentration-time curve 0-24 h).
The mark [6] stands for this setting: PO 5 mg/kg, read-out: tz1/2 po (terminal half-life) (converted).

T1 sequence (Q9UM07 whole entry): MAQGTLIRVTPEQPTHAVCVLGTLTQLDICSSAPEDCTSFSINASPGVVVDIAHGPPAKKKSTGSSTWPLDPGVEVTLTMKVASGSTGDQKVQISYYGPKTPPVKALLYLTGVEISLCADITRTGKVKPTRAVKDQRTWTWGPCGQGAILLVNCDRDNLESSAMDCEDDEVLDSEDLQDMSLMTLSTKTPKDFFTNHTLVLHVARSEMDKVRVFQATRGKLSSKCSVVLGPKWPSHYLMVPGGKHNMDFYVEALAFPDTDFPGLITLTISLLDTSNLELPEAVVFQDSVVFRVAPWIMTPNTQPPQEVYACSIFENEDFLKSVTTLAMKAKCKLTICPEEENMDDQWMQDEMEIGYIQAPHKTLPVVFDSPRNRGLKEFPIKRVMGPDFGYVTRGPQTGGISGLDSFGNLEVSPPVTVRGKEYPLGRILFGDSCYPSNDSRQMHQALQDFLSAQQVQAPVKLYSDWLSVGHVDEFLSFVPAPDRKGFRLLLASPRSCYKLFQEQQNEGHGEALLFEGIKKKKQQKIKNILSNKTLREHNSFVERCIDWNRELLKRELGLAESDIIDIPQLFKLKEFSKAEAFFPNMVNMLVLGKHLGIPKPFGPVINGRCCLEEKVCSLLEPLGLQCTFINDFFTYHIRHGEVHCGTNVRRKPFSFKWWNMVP

For orientation: IC50 means the point on the concentration scale where inhibition reaches its midpoint. A high value points to a need for much substance. By bioavailability is commonly meant dose-corrected exposure relative to a reference, in per cent. Broadly, the clearance is a measure of how efficiently the substance is removed, as volume per time. For the compound `CCn1c(-c2nc3cc(C(=O)N4CCC[C@@H](N)C4)cc(OC)c3n2C)cc2ccsc21` [Compound 3, (R)-(3-aminopiperidin-1-yl)(2-(6-ethyl-6H-thieno[2,3-b]pyrrol-5-yl)-7-methoxy-1-methyl-1H-benzo[d]imidazol-5-yl)methanone], it took 0.2 µM to reach half-maximal inhibition in data set [1] (IC50). In addition, the bioavailability in data set [2] (IV 1 mg/kg, PO 5 mg/kg) was found to be 15.6%. In addition, the values for the AUC(0-t) in data set [2] (setting [3]) and in data set [2] (setting [5]) were 1.2 µg·h/mL and 0.934 µg·h/mL, respectively. For the same compound, the clearance in data set [2] (IV 1 mg/kg) is 0.79 L/h/kg. For the same compound, the Vd in data set [2] (IV 1 mg/kg) was determined as 11.2 L/kg. In data set [2] (setting [4]), the half-life is 9.97 h. Also, in data set [2] (PO 5 mg/kg), the Tmax came to 6 h.

As for `CCn1c(-c2nc3cc(C(=O)N4CCC[C@@H](N)C4)cc(OC)c3n2C)cc2cc(C)sc21` [Compound 9, (R)-(3-aminopiperidin-1-yl)(2-(6-ethyl-2-methyl-6H-thieno[2,3-b]pyrrol-5-yl)-7-methoxy-1-methyl-1H-benzo[d]imidazol-5-yl)methanone], the IC50 in data set [1] worked out at 0.11 µM. In data set [2] (IV 1 mg/kg, PO 5 mg/kg), the bioavailability came out at 41.8%. Moreover, the results for the AUC(0-t) in data set [2] (setting [3]) and in data set [2] (setting [5]) were 0.303 µg·h/mL and 0.633 µg·h/mL, respectively. Besides, the clearance in data set [2] (IV 1 mg/kg) is 2.62 L/h/kg. The Vd in data set [2] (IV 1 mg/kg) was 22 L/kg. Also, the half-life is 5.96 h in data set [2] (setting [4]) and 6.33 h in data set [2] (setting [6]). Besides, the Tmax in data set [2] (PO 5 mg/kg) came out at 6 h.

Take `COc1cc(C(=O)N2CCC[C@@H](N)C2)cc2nc(-c3cc4ccsc4n3CC3CC3)n(C)c12` [Compound 18, (R)-(3-aminopiperidin-1-yl)(2-(6-(cyclopropylmethyl)-6H-thieno[2,3-b]pyrrol-5-yl)-7-methoxy-1-methyl-1H-benzo[d]imidazol-5-yl)methanone]: the IC50 in data set [1] was found to be 0.036 µM. The bioavailability in data set [2] (IV 1 mg/kg, PO 5 mg/kg) was 46.6%. Besides, the results for the AUC(0-t) in data set [2] (setting [3]) and in data set [2] (setting [5]) were 1.01 µg·h/mL and 2.36 µg·h/mL, respectively. Also, in data set [2] (IV 1 mg/kg), the clearance was 1 L/h/kg. Moreover, the Vd in data set [2] (IV 1 mg/kg) stood at 5.64 L/kg. The half-life is 3.92 h in data set [2] (setting [4]) and 3.96 h in data set [2] (setting [6]). Also, in data set [2] (PO 5 mg/kg), the Tmax turned out to be 6 h.

For `COc1cc(C(=O)N2CCC[C@@H](N)C2)cc2nc(-c3cc4ccsc4n3CC(C)C)n(C)c12` [Compound 20, (R)-(3-aminopiperidin-1-yl)(2-(6-isobutyl-6H-thieno[2,3-b]pyrrol-5-yl)-7-methoxy-1-methyl-1H-benzo[d]imidazol-5-yl)methanone], the IC50 in data set [1] is 0.058 µM. Besides, the bioavailability in data set [2] (IV 1 mg/kg, PO 5 mg/kg) is 71.2%. Further, the AUC(0-t) in data set [2] (setting [3]) stood at 3.16 µg·h/mL; in data set [2] (setting [5]), 11.2 µg·h/mL. In addition, the clearance in data set [2] (IV 1 mg/kg) was 0.3 L/h/kg. The Vd in data set [2] (IV 1 mg/kg) turned out to be 2.86 L/kg. Besides, the half-life in data set [2] (setting [4]) is 6.94 h; in data set [2] (setting [6]), 13.2 h. The Tmax in data set [2] (PO 5 mg/kg) was 8 h.

`COc1cc(C(=O)N2CCC[C@@H](N)C2)cc2nc(-c3cc4ccsc4n3CC(F)(F)F)n(C)c12` [Compound 21, (R)-(3-aminopiperidin-1-yl)(7-methoxy-1-methyl-2-(6-(2,2,2-trifluoroethyl)-6H-thieno[2,3-b]pyrrol-5-yl)-1H-benzo[d]imidazol-5-yl)methanone] returned an IC50 in data set [1] of 0.055 µM. Also, the bioavailability in data set [2] (IV 1 mg/kg, PO 5 mg/kg) is 33.3%. The AUC(0-t) in data set [2] (setting [3]) amounted to 0.772 µg·h/mL; in data set [2] (setting [5]), 1.29 µg·h/mL. In addition, in data set [2] (IV 1 mg/kg), the clearance was 0.92 L/h/kg. For the same compound, the Vd in data set [2] (IV 1 mg/kg) stood at 8.73 L/kg. The half-life in data set [2] (setting [4]) was 6.93 h; in data set [2] (setting [6]) it was 4.7 h. The Tmax in data set [2] (PO 5 mg/kg) came to 8 h.

In data set [1], `COc1cc(C(=O)N2CCC[C@@H](N)C2)cc2nc(-c3cc4ccsc4n3CC3CCC3)n(C)c12` [Compound 22, (R)-(3-aminopiperidin-1-yl)(2-(6-(cyclobutylmethyl)-6H-thieno[2,3-b]pyrrol-5-yl)-7-methoxy-1-methyl-1H-benzo[d]imidazol-5-yl)methanone] displayed a half-inhibitory concentration (IC50) of 0.04 µM. Further, in data set [2] (IV 1 mg/kg, PO 5 mg/kg), the bioavailability amounted to 35%. The figures for the AUC(0-t) in data set [2] (setting [3]) and in data set [2] (setting [5]) were 7.68 µg·h/mL and 13.5 µg·h/mL, respectively. In addition, the clearance in data set [2] (IV 1 mg/kg) was 0.1 L/h/kg. Further, the Vd in data set [2] (IV 1 mg/kg) came out at 1.76 L/kg. Further, the figures for the half-life in data set [2] (setting [4]) and in data set [2] (setting [6]) were 14.6 h and 12 h, respectively. Further, the Tmax in data set [2] (PO 5 mg/kg) is 6 h.

`COc1cc(C(=O)N2CCC[C@@H](N)C2)cc2nc(-c3cc4cc(C)sc4n3CC3CC3)n(C)c12` [Compound 23, (R)-(3-aminopiperidin-1-yl)(2-(6-(cyclopropylmethyl)-2-methyl-6H-thieno[2,3-b]pyrrol-5-yl)-7-methoxy-1-methyl-1H-benzo[d]imidazol-5-yl)methanone] gave a concentration for half-maximal inhibition (IC50) in data set [1] of 0.025 µM. Moreover, the bioavailability in data set [2] (IV 1 mg/kg, PO 5 mg/kg) was 31.2%. In addition, the AUC(0-t) in data set [2] (setting [3]) was determined as 0.887 µg·h/mL; in data set [2] (setting [5]), 1.38 µg·h/mL. Besides, the clearance in data set [2] (IV 1 mg/kg) is 1.08 L/h/kg. For the same compound, the Vd in data set [2] (IV 1 mg/kg) was found to be 11.6 L/kg. The half-life in data set [2] (setting [4]) was 7.9 h; in data set [2] (setting [6]) it was 7.52 h. For the same compound, the Tmax in data set [2] (PO 5 mg/kg) was 6 h.
